From patent US12171203B2, “Transgenic biosensor” (KDT, Inc., priority 2011, dated 2024)

Columns and labels:
Format in all cases: in vivo, C. elegans
[1] = tested on: Phsp-16::hRFP reporter; experiment: fluorescent plate reader assay of toxin dosage sensitivity, hsp-16::hRFP nematodes; conditions: 24 hr exposure, ~600 worms per well, assayed in triplicate; read-out: EC50 of red fluorescence response of Phsp-16::hRFP reporter
Description: FIGS. 3A, B, and C show the fluorescence plate-reader sensitivity and toxin response.
For instance, a protein homeostasis reporter was created by fusing heat shock protein to a nuclear localized red fluorescent protein (hsp-16.42::hRFP)(the materials and methods for the construction of the transgenic organism are described in more detail in the examples below). Exposure to heat toxicity generates induction of nuclear localization. This heat shock gene reporter was screened for gene induction capacity using a heat-shock protocol. The hsp-16::hRFP construct is exposed to a 1 hr incubation at 30 C. Gene induction was screened 4 to 24 hrs after heat shock. Significant red fluorescence is observed in the nuclei of heat-shocked worm relative to control (FIG. 5).
Toxin sensitivity of hsp-16 was confirmed with exposure to heavy metals and metalloids. To develop a rapid screen for the hsp-16::hRFP expression, a fluorescent plate reader assay was developed. To test the sensitivity of this assay, a titrating concentration of nematodes were exposed to heat shock. The worms were transferred to a 96 well plate and red fluorescence was quantified. Good sensitivity for a red fluorescence signal occurs at concentrations of 50 or more worms (FIG. 3A). Next, the toxin dosage sensitivity was measured.

[2] = tested on: metallothionein gene (mtl-2) promoter reporter; experiment: two-color nematode biosensor panel, plate reader assay, mtl-2 reporter; conditions: cadmium 1 mM, NGM plates, 15 hrs; population-normalized change relative to unexposed control
Description: (§1) Responses are population-normalized changes relative to unexposed control. Error bars indicate […] of 2 to 6 independent measurements. The label “2 line” indicates data derived from combining responses of two independently-derived MosSCI lines for the same reporter.
(§2) The seven different promoters used to create the lines were obtained from genes involved in oxidative stress response. Two genes used were alpha cystallins which respond to cytoplasmic heat shock (hsp-16.2 and hsp-16.41) (David et al. Environ. Toxicol. Chem 2003 January; 22(1):111-118; Hong et al. J. Mol. Biol 2004 November; 344(2):369-381; Candido E P M. Prog. Mol. Subcell. Biol 2002; 28:61-78; Dengg et al. J Pharmacol Toxicol Methods 2004 December; 50(3):209-214; and Strayer et al. FASEB J 2003 December; 17(15):2305-2307). […] The resulting hsRFP reporter construct expresses red fluorescence in cell nuclei. […]
(§3) Changes in expression were quantified with a plate reader assay. […]

[3] = tested on: ugt-1 promoter reporter; experiment: two-color nematode biosensor panel, plate reader assay, ugt-1 reporter; conditions: cadmium 1 mM, NGM plates, 15 hrs; population-normalized change relative to unexposed control
Description: as §1, §2, §3

[4] = tested on: hsp-16's (hsp-16.2, hsp-16.41) promoter reporters; experiment: two-color nematode biosensor panel, plate reader assay, hsp-16 reporters; conditions: cadmium 1 mM, NGM plates, 15 hrs; population-normalized change relative to unexposed control
Description: as §1, §2, §3

[5] = tested on: hsp-4 promoter reporter; experiment: two-color nematode biosensor panel, plate reader assay, hsp-4 reporter; conditions: cadmium 1 mM, NGM plates, 15 hrs; population-normalized change relative to unexposed control
Description: as §1, §2, §3

[6] = tested on: nematode population; experiment: chronic toxin exposure, effect on nematode population size; conditions: chronic exposure for 72 hrs, various concentrations
Procedure: FIGS. 4A, B, and C show the population effects of chronic toxin exposure.
Advantageously, the transgenic animals described in these examples can have a control reporter (e.g., constitutively expressed). Exposure to some selected agents or toxins can lead to shortened life-span, lower brood sizes or other effects that need to be controlled. The problem becomes most pronounced in chronic assays. […] Thus, it was determined a control for population mass differences between assay wells is desirable. Introduction of a second constitutively expressed reporter gene can be used to control for various population differences.

**Q.** What does the source list for [Cl][Cd][Cl] [cadmium, cadmium chloride]?
**A.** EC50 [1]: ~200 µM; induction of metallothionein gene expression (reporter) [2]: primarily induced; induction of expression from ugt-1 reporter [3]: only mildly induced; induction of expression from hsp-16's reporters [4]: only mildly induced; induction of expression from hsp-4 reporter [5]: only mildly induced; effect on population size [6]: significant population effects

**Q.** How did the EC50 [1] turn out when sodium bis-arsenite [arsenic] was run?
**A.** The EC50 was ~1500 µM.
